One data set deals with fet3Δftr1Δ yeast. Put plainly: Sustainability assay. The data set is classed as cell-based, Saccharomyces cerevisiae. Particulars: 10 μM hinokitiol, 10 μM FeCl3. As to the method: Sustainable hinokitiol-promoted growth restoration of fet3Δftr1Δ yeast was performed similar to previously reported (20) by inoculation of hinokitiol-rescued yeast from low iron SD-agar plates containing 10 μM hinokitiol and 10 μM FeCl3 into low iron SD liquid media containing 10 μM hinokitiol and 10 μM FeCl3, then streaking of the yeast suspension (diluted to OD600 of 0.1) onto agar plates. This process was repeated for >100 days. Continued reliance of fet3Δftr1Δ yeast growth on hinokitiol was observed, as removal of hinokitiol from the SD-agar plates led to no fet3Δftr1Δ yeast cell growth.

The test system of data set [1] is FPN1-deficient Caco-2 monolayers. Nature of the data set: 55Fe uptake and transport in FPN1-deficient Caco-2 monolayers. To be noted: 1 μM. Type of data set: cell-based, Human. As to the method:
To knockdown FPN1 levels in wild type Caco-2 cells, the differentiated epithelial monolayers were incubated with 150 μM quercetin (Sigma 337951) for 18 hours in Caco-2 Complete media containing G418 similar to previously described (40). To knockdown FPN1 levels in shControl and shDMT1 Caco-2 monolayers, incubation was performed as above except with 250 μM quercetin. After completion of the incubation, the apical and basolateral fluid was aspirated and rinsed with PBS before ^55Fe transport and uptake were determined as described above.

In a further data set the test system is TMEM14CΔ MEL cells. Put plainly: Hemoglobinization of TMEM14C-deficient MEL cells. Type of data set: cell-based, mouse. Particulars: 1 μM. As to the method:
Cells were then incubated at 37° C. for 72 hours unless otherwise noted. […] Hemoglobinized MEL cells were quantified three days after DMSO induction through o-dianisidine staining similar to previously reported (74). Cells were centrifuged three days after induction and rinsed with PBS. […] Cells were then imaged on an AXIO Zoom […] microscope to obtain color images. The number of stained cells were then quantified via ImageJ analysis and compared to the number of total cells in each image. To determine that hinokitiol requires DMSO induction for hemoglobinization, 2% DMSO was not added at the beginning of the experiment before a 72-hour incubation and o-dianisidine staining.

With `CC(C)c1cccc(=O)c(O)c1` [hinokitiol], in the data set with fet3Δftr1Δ yeast, the “time over which growth restoration is sustained” value was over 100 days. In addition, in data set [1], the iron uptake result is recorded as “without affecting iron uptake”, the “monolayer integrity (TEER)” value is listed as “nor disrupting monolayer integrity” and the transepithelial iron transport result is “restored transepithelial iron transport”. For the same compound, the hemoglobinization entry with TMEM14CΔ MEL cells is “did not promote hemoglobinization”.

These data come from patent US12084411B2, “Hinokitiol analogues, methods of preparing and pharmaceutical compositions thereof” (The Board of Trustees of the University of Illinois, priority 2018, dated 2024).
